These results are taken from article PMC8961646, “Fibroblast Activation Protein Specific Optical Imaging in Non-Small Cell Lung Cancer” (Frontiers in Oncology, 2022).

Assay [1] has as its system FAP+ CAFs from NSCLC patient samples. Kind of assay: Probe cleavage on cancer associated fibroblasts (CAFs). Type of assay: cell-based, human. Conditions: FAP3 5 µM, confluent CAF monolayer in 96 well plate, DPBS, read 480/530 nm for one hour, n=3 run in triplicate.
Description: CAFs were isolated from NSCLC patient samples as previously described ([28]). Briefly, tissue samples were minced with forceps and incubated for an hour in prewarmed RPMI media (Gibco) containing collagenase IV [2 mg/ml] (Sigma) and DNase [0.2 mg/ml] (Sigma). Samples were spun at 350 g for 5 minutes and red blood cells were lysed from samples using RBC lysis buffer (BioLegend) in 10 ml for 10 minutes. Following a further spin at 350 g for 5 minutes, cells were seeded in culture flasks in DMEM containing 10% FCS, 1% Penicillin-Streptomycin, 1% L-Glutamine and 10% Insulin Transferrin Selenium (ITS). 24 hours after seeding, non-adherent cells were washed from the flasks. Cells were maintained by standard cell culture methods and by passage 2, the predominant cell type was CAFs, assessed by flow cytometry markers and morphology. CAFs between passage 4-9 were used to assess FAP probes and confirmed to be FAP^hi by flow cytometry.
CAFs were seeded into 96 well plates in a 100 µl media (complete DMEM as described above) at a density of 1x10^5 cells/ml to form a confluent monolayer within 24 hours. […] Immediately after adding imaging probes, the plate was transferred to the prewarmed spectrophotometer as above and read at 480/530 nm for one hour.
The target in a further assay is T1, rhFAP (Homo sapiens, UniProt Q12884).
T1 construct: purchased R&D Systems
T1 sequence (Q12884 26-760 limits assumed): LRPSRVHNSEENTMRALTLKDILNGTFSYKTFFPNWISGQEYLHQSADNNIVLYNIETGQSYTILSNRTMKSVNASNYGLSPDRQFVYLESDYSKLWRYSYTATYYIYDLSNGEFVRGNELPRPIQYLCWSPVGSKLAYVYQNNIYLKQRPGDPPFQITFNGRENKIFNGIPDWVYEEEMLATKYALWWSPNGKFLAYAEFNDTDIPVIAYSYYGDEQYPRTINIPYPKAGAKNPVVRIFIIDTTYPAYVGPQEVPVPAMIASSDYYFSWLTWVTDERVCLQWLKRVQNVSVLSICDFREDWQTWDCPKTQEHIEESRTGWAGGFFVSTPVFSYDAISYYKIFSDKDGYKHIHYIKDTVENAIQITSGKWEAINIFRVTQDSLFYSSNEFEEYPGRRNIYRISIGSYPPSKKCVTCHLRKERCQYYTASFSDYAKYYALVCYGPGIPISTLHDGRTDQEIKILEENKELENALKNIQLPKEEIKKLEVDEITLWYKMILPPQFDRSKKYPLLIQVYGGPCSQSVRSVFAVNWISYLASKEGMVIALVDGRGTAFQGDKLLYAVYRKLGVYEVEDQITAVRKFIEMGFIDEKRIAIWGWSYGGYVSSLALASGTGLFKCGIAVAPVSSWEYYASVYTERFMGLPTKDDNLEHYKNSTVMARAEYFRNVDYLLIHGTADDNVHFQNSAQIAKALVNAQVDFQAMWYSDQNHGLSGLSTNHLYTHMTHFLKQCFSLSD
Kind of assay: Enzyme kinetics with varying concentrations of substrate FAP3 in presence of rhFAP. Type of assay: biochemical. Conditions: increasing concentrations of substrate FAP3 with rhFAP; value (SE). Here is the method: A calibration curve was determined using the FAP3 concentration (C-terminal cleavage fragment) against RFU to calculate the enzyme kinetic data and is shown below.

In a further assay the target is T2, rhPREP (Homo sapiens, UniProt P48147).
T2 construct: purchased R&D Systems
T2 sequence (P48147 1-710): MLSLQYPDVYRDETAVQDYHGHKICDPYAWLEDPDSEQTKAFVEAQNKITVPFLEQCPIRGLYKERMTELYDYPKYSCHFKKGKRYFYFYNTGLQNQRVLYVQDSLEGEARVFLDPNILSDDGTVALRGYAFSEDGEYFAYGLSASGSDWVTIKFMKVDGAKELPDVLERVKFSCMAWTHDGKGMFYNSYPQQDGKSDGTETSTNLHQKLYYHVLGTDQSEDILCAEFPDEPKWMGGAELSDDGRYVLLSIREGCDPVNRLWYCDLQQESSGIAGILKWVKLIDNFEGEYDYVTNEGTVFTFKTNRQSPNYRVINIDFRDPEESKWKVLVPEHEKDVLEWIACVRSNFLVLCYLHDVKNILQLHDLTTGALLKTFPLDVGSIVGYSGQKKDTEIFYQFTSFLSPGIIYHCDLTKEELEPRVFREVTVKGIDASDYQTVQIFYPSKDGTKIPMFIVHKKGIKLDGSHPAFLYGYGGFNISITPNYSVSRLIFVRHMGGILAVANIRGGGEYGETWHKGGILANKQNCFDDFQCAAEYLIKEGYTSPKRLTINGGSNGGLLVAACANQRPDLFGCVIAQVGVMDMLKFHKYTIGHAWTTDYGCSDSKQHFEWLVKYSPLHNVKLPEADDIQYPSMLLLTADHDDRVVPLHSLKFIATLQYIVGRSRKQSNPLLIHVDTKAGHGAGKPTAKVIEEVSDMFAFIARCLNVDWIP
Put plainly: Probe cleavage by recombinant human PREP (fluorescence plate assay, MALDI confirmation). Type of assay: biochemical.

The next assay concerns the target T3, MMP 2 (Homo sapiens, UniProt P08253).
T3 sequence (P08253 110-660): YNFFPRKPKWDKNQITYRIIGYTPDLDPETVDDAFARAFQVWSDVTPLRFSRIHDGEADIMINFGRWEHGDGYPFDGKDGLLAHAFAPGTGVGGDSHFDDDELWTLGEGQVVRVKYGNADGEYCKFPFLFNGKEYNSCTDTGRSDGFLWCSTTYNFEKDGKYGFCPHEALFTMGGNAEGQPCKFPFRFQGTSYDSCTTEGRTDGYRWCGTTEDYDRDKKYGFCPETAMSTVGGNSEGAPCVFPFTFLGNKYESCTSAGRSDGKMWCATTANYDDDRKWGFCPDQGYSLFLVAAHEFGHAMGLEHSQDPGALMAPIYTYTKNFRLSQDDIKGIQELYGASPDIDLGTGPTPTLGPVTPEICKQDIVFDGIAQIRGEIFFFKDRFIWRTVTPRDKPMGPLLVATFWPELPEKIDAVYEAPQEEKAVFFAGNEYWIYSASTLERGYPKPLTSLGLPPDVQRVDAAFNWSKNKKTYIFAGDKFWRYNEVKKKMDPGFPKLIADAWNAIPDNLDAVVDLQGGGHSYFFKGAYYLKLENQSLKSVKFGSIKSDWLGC
Put plainly: Probe assessment against recombinant MMP panel. Conditions: recombinant enzyme, n=2 run in triplicate. In kind it is biochemical.

Another assay addresses MMP 13 (Homo sapiens, UniProt P45452). Put plainly: Probe assessment against recombinant MMP panel. Type of assay: biochemical. Conditions: recombinant enzyme, n=2 run in triplicate.

Molecules are shown by their SMILES. Non-standard residues stand in square brackets, D forms with d. Residues, ends and D or L forms follow the SMILES beside them. *: point of attachment. 5FAM = O=C1OC2(c3ccc(O)cc3Oc3cc(O)ccc32)c2ccc(C(=O)*)cc21; MethylRed = CN(C)c1ccc(/N=N/c2ccccc2C(=O)*)cc1; AEEA = NCCOCCOCC(=O)O

For the molecule `CC(C)[C@H](NC(=O)[C@@H](N)CCCCNC(=O)c1ccccc1/N=N/c1ccc(N(C)C)cc1)C(=O)N[C@H](CO)C(=O)N1CCC[C@H]1C(=O)N[C@@H](CC(N)=O)C(=O)N[C@@H](CCC(N)=O)C(=O)NCC(=O)N[C@@H](CCCCNC(=O)c1ccc2c(c1)C(=O)OC21c2ccc(O)cc2Oc2cc(O)ccc21)C(=O)NCCOCCOCC(=O)N[C@H](CCCCN)C(=O)NCCOCCOCC(=O)N[C@H](CCCCN)C(=O)NCCOCCOCC(=O)N[C@H](CCCCN)C(N)=O` [FAP3] (H-K(MethylRed)V[dS]PNQGK(5FAM)[AEEA][dK][AEEA][dK][AEEA][dK]-NH2), the “Cleavage by FAP+ CAFs (fluorescence)” value in assay [1] is “cleaved”. For the same molecule, the Vmax on rhFAP is reported as 109.5 RFU/min. Also, the “Cleavage by rhPREP by MALDI” value at rhPREP (MALDI-TOF read-out) is reported as “no cleavage”. On rhPREP (probe 5 µM, rhPREP 0.1 µg/ml, TRIS buffer pH 7.5, read 480/530 nm, n=3 run in triplicate), the “Cleavage by rhPREP (fluorescence signal)” value was “no rhPREP cleavage”. Further, at MMP 2, the “Activity with MMP 2” value was “no activity”. On MMP 13, the “Activity with MMP 13” value is “no activity”.
